Here are results for 17 compounds from patent US20260159512A1, “BCAT2 INHIBITORS” (AGIOS PHARMACEUTICALS, INC., priority 2021, published 2026).

Bounds are passed on as bounds.

Holding throughout (settings): average where tested multiple times
The target of assay [1] is T1, BCAT2 (Homo sapiens, UniProt O15382).
T1 sequence (O15382 28-392): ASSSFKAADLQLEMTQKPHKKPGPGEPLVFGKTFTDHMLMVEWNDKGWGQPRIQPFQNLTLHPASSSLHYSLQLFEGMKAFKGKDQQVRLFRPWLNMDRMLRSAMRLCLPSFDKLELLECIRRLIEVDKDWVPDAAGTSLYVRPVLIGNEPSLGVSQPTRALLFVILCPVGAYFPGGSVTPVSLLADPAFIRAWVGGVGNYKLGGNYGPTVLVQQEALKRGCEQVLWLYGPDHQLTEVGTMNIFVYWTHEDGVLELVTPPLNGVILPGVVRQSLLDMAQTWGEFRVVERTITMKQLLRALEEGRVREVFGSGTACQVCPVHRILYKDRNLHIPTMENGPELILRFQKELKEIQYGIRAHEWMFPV
Description: BCAT2 in vitro cell inhibition using engineered A549 cells (KMV cell assay, 13C6-KMV by LC-MS/MS). Type of assay: cell-based. Set-up: The result was an engineered A549 cell line that expressed endogenous BCAT2; endogenous in cells; host or cells: A549 cells with MUT and BCAT1 knocked out by CRISPR/CAS9; key to BCAT2 Cell Inhibition: A: less than or equal to 0.100 μM; B: greater than 0.100 and less than or equal to 0.500 μM; C: greater than 0.500 and less than or equal to 1.000 μM; d: greater than 1.000 μM; E: no fit.

The next assay deals with T2, hBCAT1 (Homo sapiens, UniProt P54687).
T2 sequence (P54687 1-386): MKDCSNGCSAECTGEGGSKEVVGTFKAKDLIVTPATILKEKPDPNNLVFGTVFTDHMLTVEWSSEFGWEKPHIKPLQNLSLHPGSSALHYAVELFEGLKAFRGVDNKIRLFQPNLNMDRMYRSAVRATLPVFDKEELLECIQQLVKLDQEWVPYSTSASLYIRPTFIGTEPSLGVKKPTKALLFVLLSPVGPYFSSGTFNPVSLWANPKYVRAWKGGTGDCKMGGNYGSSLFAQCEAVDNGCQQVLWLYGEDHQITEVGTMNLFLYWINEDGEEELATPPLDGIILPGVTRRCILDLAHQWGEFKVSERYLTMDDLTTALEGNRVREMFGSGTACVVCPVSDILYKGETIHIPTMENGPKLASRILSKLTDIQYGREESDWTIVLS
Description: BCAT1 in vitro enzyme inhibition assay (resazurin/diaphorase-coupled fluorescence). Format: biochemical. The method, boiled down:
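Ten-point, 3-fold compound series (top final 100 μM, delivered 1:50 from 50× DMSO stocks) tested against hBCAT1. Inhibition detected via diaphorase-coupled resazurin fluorescence, duplicate wells, with values from repeated runs averaged.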
In general terms: The colour change of resazurin is a common sign of viable cells or microbes.

Assay [2] concerns the target T1, BCAT2. Kind of assay: BCAT2 in vitro enzyme inhibition assay (resazurin/diaphorase-coupled fluorescence). Type of assay: biochemical. A digest of the protocol: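 Coupled fluorescence readout: glutamate formed from L-leucine/α-ketoglutarate transamination drives GDH/NAD/diaphorase reduction of resazurin (Ex 540/Em 590). Human BCAT2 was first exposed 1 h at room temperature to compound, top final 100 μM in 3-fold, 10-point series; substrate reaction ran 1 h before SDS quench, in technical duplicate with DMSO max and enzyme-free min controls.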

Turning to `O=C(N[C@H]1CCC[C@@H](n2c(-c3ccccc3F)nc3cnc(-c4ccncc4)cc32)C1)c1ncc(Cl)s1` [Example 178, 5-chloro-N-((1S,3R)-3-(2-(2-fluorophenyl)-6-(pyridin-4-yl)-1H-imidazo[4,5-c]pyridin-1-yl)cyclohexyl)thiazole-2-carboxamide], the values for the IC50 against BCAT2 [1], against hBCAT1 and on BCAT2 [2] were 100 to 500 nM, 500 to 1000 nM and not above 100 nM, respectively.
In the case of `O=C(N[C@H]1CCC[C@@H](n2c(CC3(C(F)(F)F)CC3)nc3cnc(-c4nc[nH]n4)cc32)C1)c1ncc(Cl)s1` [Example 325, N-((1S,3R)-3-(6-(1H-1,2,4-triazol-3-yl)-2-((1-(trifluoromethyl)cyclopropyl)methyl)-1H-imidazo[4,5-c]pyridin-1-yl)cyclohexyl)-5-chlorothiazole-2-carboxamide], the values for the concentration for half-maximal inhibition (IC50) against BCAT2 [1], at hBCAT1 and at BCAT2 [2] were not above 100 nM, less than 500 nM and not above 100 nM, respectively.
On to `O=C(N[C@H]1CCC[C@@H](n2c(-c3ccccc3F)nc3cnc(-c4nn[nH]n4)cc32)C1)c1ccc(Cl)s1` [Example 82, 5-chloro-N-((1S,3R)-3-(2-(2-fluorophenyl)-6-(2H-tetrazol-5-yl)-1H-imidazo[4,5-c]pyridin-1-yl)cyclohexyl)thiophene-2-carboxamide], for which the results for the half-maximal inhibitory concentration (IC50) against BCAT2 [1], against hBCAT1 and on BCAT2 [2] were 500 to 1000 nM, less than 500 nM and not above 100 nM, respectively.
On to `O=C(N[C@H]1CCC[C@@H](n2c(-c3ccccc3F)nc3cnc(N4CCC(O)C4)cc32)C1)c1ncc(Cl)s1` (stereo partly drawn) [Example 199, 5-chloro-N-((1S,3R)-3-(2-(2-fluorophenyl)-6-(3-hydroxypyrrolidin-1-yl)-1H-imidazo[4,5-c]pyridin-1-yl)cyclohexyl)thiazole-2-carboxamide], for which the IC50 against BCAT2 [1] was more than 1000 nM; against hBCAT1, more than 5000 nM; against BCAT2 [2], not above 100 nM.
As for `CC(C)Cc1nc2cnc(-c3nnco3)cc2n1[C@@H]1CCC[C@H](NC(=O)c2ncc(Cl)s2)C1` [Example 380, 5-chloro-N-((1S,3R)-3-(2-isobutyl-6-(1,3,4-oxadiazol-2-yl)-1H-imidazo[4,5-c]pyridin-1-yl)cyclohexyl)thiazole-2-carboxamide], the IC50 on BCAT2 [1] is more than 1000 nM; against hBCAT1, more than 5000 nM; against BCAT2 [2], 100 to 500 nM.
The corresponding values for `CO[C@H]1C[C@H](NC(=O)c2ncc(Cl)s2)C[C@H](n2c(CC(C)C)nc3cnc(-c4ncc(C)o4)cc32)C1` (single isomer, unassigned) [Example 427] are 100 to 500 nM, 500 to 1000 nM and not above 100 nM.
`CC(C)Cc1nc2cnc(-c3nc(Cl)cs3)cc2n1[C@@H]1CCC[C@H](NC(=O)c2ncc(Cl)s2)C1` [Example 329, 5-chloro-N-((1S,3R)-3-(6-(4-chlorothiazol-2-yl)-2-isobutyl-1H-imidazo[4,5-c]pyridin-1-yl)cyclohexyl)thiazole-2-carboxamide]: the results for the IC50 against BCAT2 [1], on hBCAT1 and at BCAT2 [2] were 500 to 1000 nM, 500 to 1000 nM and not above 100 nM, respectively.
For the compound `O=C(N[C@H]1CCC[C@@H](n2c(-c3ncccc3F)nc3cnc(-n4nccn4)cc32)C1)c1ccc(Cl)s1` [Example 76, 5-chloro-N-((1S,3R)-3-(2-(3-fluoropyridin-2-yl)-6-(2H-1,2,3-triazol-2-yl)-1H-imidazo[4,5-c]pyridin-1-yl)cyclohexyl)thiophene-2-carboxamide], the values for the IC50 against BCAT2 [1], on hBCAT1 and against BCAT2 [2] were not above 100 nM, less than 500 nM and not above 100 nM, respectively.
Regarding `CO[C@H]1C[C@H](NC(=O)c2ncc(Cl)s2)C[C@H](n2c(-c3ccccc3F)nc3cnc(-c4nc[nH]n4)cc32)C1` (single isomer, unassigned) [Example 218], the values for the concentration for half-maximal inhibition (IC50) against BCAT2 [1], against hBCAT1 and against BCAT2 [2] were not above 100 nM, less than 500 nM and not above 100 nM, respectively.
Regarding `CO[C@H]1C[C@@H](NC(=O)c2ncc(Cl)s2)C[C@@H](n2c(CC(C)C)nc3cnc(-c4nc[nH]n4)cc32)C1` (stereo in doubt) [Example 432, 5-chloro-N-((1S,3R,5S)-3-(2-isobutyl-6-(1H-1,2,4-triazol-3-yl)-1H-imidazo[4,5-c]pyridin-1-yl)-5-methoxycyclohexyl)thiazole-2-carboxamide], the values for the IC50 against BCAT2 [1], on hBCAT1 and against BCAT2 [2] were not above 100 nM, less than 500 nM and not above 100 nM, respectively.
Consider `COc1cccc(F)c1-c1nc2cnc(-c3nc[nH]n3)cc2n1[C@@H]1CCCC[C@H](NC(=O)c2ccc(Cl)s2)[C@H]1O` [Example 407, 5-chloro-N-((1S,2R,3R)-3-(2-(2-fluoro-6-methoxyphenyl)-6-(1H-1,2,4-triazol-3-yl)-1H-imidazo[4,5-c]pyridin-1-yl)-2-hydroxycycloheptyl)thiophene-2-carboxamide], for which the IC50 against BCAT2 [1] is not above 100 nM; on hBCAT1 it was less than 500 nM; at BCAT2 [2], not above 100 nM.
As for `O=C(N[C@H]1CCC[C@@H](n2c(-c3ccccn3)nc3cnc(-c4nn[nH]n4)cc32)C1)c1ncc(C(F)F)s1` [Example 50, 5-(difluoromethyl)-N-((1S,3R)-3-(2-(pyridin-2-yl)-6-(2H-tetrazol-5-yl)-1H-imidazo[4,5-c]pyridin-1-yl)cyclohexyl)thiazole-2-carboxamide], at BCAT2 [1], the “BCAT2 Cell Inhibition” value is “E”. Also, the half-maximal inhibitory concentration (IC50) at hBCAT1 was less than 500 nM; against BCAT2 [2], not above 100 nM.
Regarding `O=C(N[C@H]1CCC[C@@H](n2c(-c3ccccn3)nc3cnc(-n4ccnn4)cc32)C1)c1ncc(Br)s1` [Example 32, 5-bromo-N-((1S,3R)-3-(2-(pyridin-2-yl)-6-(1H-1,2,3-triazol-1-yl)-1H-imidazo[4,5-c]pyridin-1-yl)cyclohexyl)thiazole-2-carboxamide], the half-inhibitory concentration (IC50) on BCAT2 [1] was more than 1000 nM; against hBCAT1, 1000 to 5000 nM; against BCAT2 [2], 100 to 500 nM.
As for `O=C(N[C@H]1CCC[C@@H](n2c(-c3ccccc3F)nc3cnc(-c4n[nH]c(=O)o4)cc32)C1)c1ncc(Cl)s1` [Example 203, 5-chloro-N-((1S,3R)-3-(2-(2-fluorophenyl)-6-(5-oxo-4,5-dihydro-1,3,4-oxadiazol-2-yl)-1H-imidazo[4,5-c]pyridin-1-yl)cyclohexyl)thiazole-2-carboxamide], the half-inhibitory concentration (IC50) at BCAT2 [1] was 100 to 500 nM; at hBCAT1, less than 500 nM; against BCAT2 [2], not above 100 nM.
On to `O=C(N[C@H]1CCC[C@@H](n2c(-c3c(O)cccc3F)nc3cnc(-n4nccn4)cc32)C1)c1ncc(Cl)s1` [Example 354, 5-chloro-N-((1S,3R)-3-(2-(2-fluoro-6-hydroxyphenyl)-6-(2H-1,2,3-triazol-2-yl)-1H-imidazo[4,5-c]pyridin-1-yl)cyclohexyl)thiazole-2-carboxamide], for which the results for the IC50 on BCAT2 [1], on hBCAT1 and against BCAT2 [2] were not above 100 nM, less than 500 nM and not above 100 nM, respectively.
Regarding `CC(C)Cc1nc2cnc(-c3nc[nH]n3)cc2n1[C@@H]1CCC[C@H](NC(=O)c2ncc(Cl)s2)C1` [Example 86, 5-chloro-N-((1S,3R)-3-(2-isobutyl-6-(1H-1,2,4-triazol-3-yl)-1H-imidazo[4,5-c]pyridin-1-yl)cyclohexyl)thiazole-2-carboxamide], the IC50 against BCAT2 [1] is not above 100 nM; at hBCAT1, less than 500 nM; on BCAT2 [2] it was not above 100 nM.
As to `CC(C)Cc1nc2cnc(-n3cc(F)cn3)cc2n1[C@@H]1CCC[C@H](NC(=O)c2ncc(Cl)s2)[C@H]1O` [Example 232, 5-chloro-N-((1S,2R,3R)-3-(6-(4-fluoro-1H-pyrazol-1-yl)-2-isobutyl-1H-imidazo[4,5-c]pyridin-1-yl)-2-hydroxycyclohexyl)thiazole-2-carboxamide], the IC50 against BCAT2 [1] was 500 to 1000 nM; at hBCAT1, less than 500 nM; at BCAT2 [2] it was not above 100 nM.

As a reminder, the IC50 is the concentration needed to halve the response being measured.
